Measurements: patent US20070078096A1, “Buffered drug formulations for transdermal electrotransport delivery” (priority 1997, published 2007)
Values after ≈ are worked out from the molar mass of the structure shown. Read-outs that look alike come from different tables or passages of the source. Residues, ends and D or L forms follow the SMILES beside them.

Legend:
[1] = Conductivity of dipeptides at their pI; assay type: physicochemical
From the text: (§1) Table 1 lists conductivities and solubilities of selected dipeptides useful in the present invention, at their pI.

[2] = pH stability of formulations with TMAB or SMS during electrotransport (Example 4); assay type: in vivo, hairless guinea pigs
From the text: The effect of the zwitterionic buffer Gly-His and His-Glu on pH stability of formulations containing small molecular weight drug-like compounds during electrotransport to hairless guinea pigs was studied. Trimethylammonium bromide (TMAB) was used as the cationic model drug and sodium methanesulfate (SMS) was used as the model anionic drug.
The electrodes were connected to a DC power source which supplied a constant level of electric current of 0.100 mA/cm^2. The anodic electrode assembly comprised a skin-contacting gel containing the aqueous solution of His-Glu 66 mM or Gly-His 45 mM and TMAB at 50 mM and 3% HEC. This formulation was separated from the silver anode by a Sybron ion exchange membrane. A gel containing 0.15 M sodium chloride (which acted as a chloride source) was placed between the silver anode and the ion exchange membrane. The cathodic electrode assembly comprised a skin-contacting gel containing the aqueous solution of His-Glu 66 mM or Gly-His 45 mM and SMS 50 mM and 3% HEC. The cathodic gel reservoir was separated from the silver chloride cathode by a Nafion ion exchange membrane. A gel containing 0.1 5M sodium chloride was placed between the cathode and the ion exchange membrane. The ionic strength of the skin-contacting gels was 60 mM.
(§2) Experiments were performed in vivo in hairless guinea pigs. Two animals were used for each condition studied. The electrotransport systems were applied to and removed from the backs of the animals. The two reservoirs were generally spaced about 5 cm apart. The application site was wiped with 70% isopropyl alcohol wipes prior to system application. Donor reservoir gel pH was measured prior to application and after removal of the systems using a HORIBA compact pH meter (Cardy).

[3] = Solubility of dipeptides at their pI; assay type: physicochemical
From the text: as §1

[4] = Donor reservoir gel pH during electrotransport of DECAD (Example 3); assay type: in vivo, hairless guinea pigs
Protocol: The effect of the zwitterionic buffer Gly-His at pH 7.5 (pI) on the transdermal delivery of a synthetic radiolabeled decapeptide (DECAD) in the hairless guinea pig was evaluated. […] At pH 7.5 the net charge of DECAD is about +1.6.
The electrodes were connected to a DC power source which supplied a constant level of electric current of 0.100 mA/cm2. The anodic reservoir comprised a skin-contacting gel containing the aqueous solution of the buffering agent and DECAD at the indicated concentrations and 3% hydroxyethyl cellulose (HEC) as well as 10% cholestyramine, a high molecular weight resin in chloride salt form which contributes chloride ions into the donor solution without introducing mobile cations which compete with the DECAD for delivery into the animal. The chloride ions from the cholestyramine resin are provided to react with any silver ions which are generated by electrochemical oxidation of the silver foil anode, thereby removing silver cations (ie, as potentially competing with the DECAD cations) from the donor solution. The cathodic reservoir contained a 0.15 M aqueous solution of sodium chloride in an HEC gel.
as §2, with “Three” for “Two”, “flank” for “backs”, “water” for “70% isopropyl alcohol wipes”, “application. […]” for “application.”

[5] = pKa, pI and charge distribution of buffers
From the text: At the pI, three species coexist.
In an electric field these negative species move in the opposite direction of their positive associated counterions.
Choice of the dipeptide buffer will be on a case-by-case basis depending on the drug compound and the desired level of pH control and conductivity of the formulation.

[6] = In vivo iontophoresis, pH control of anodic and cathodic buffer gels (Example 2); design: species or system hairless guinea pigs; Ionic strength (approx.): unit not given here; settings: for Anodic pH after 5 h electrotransport / Cathodic pH after 5 h electrotransport: 0.1 mA/cm^2
Protocol: In vivo iontophoresis experiments were performed using custom built electrotransport systems. […] This formulation was separated from the anode electrode by a Sybron ion exchange membrane. […] The cathode-compartment comprised a skin-contacting gel containing the aqueous solution of the buffering agent at the indicated concentration and 3% HEC. This formulation was separated from the cathode electrode by a Nafion ion exchange membrane. […] The electrodes were connected to a DC power source which supplied a constant level of electric current of 0.1 mA/cm^2. Experiments were performed in vivo in hairless guinea pigs. Three animals were used for each condition studied. The electrotransport systems were applied to and removed from the flank of the animals. The two reservoirs were generally spaced about 5 cm apart. The application site was wiped with water prior to system application. pH of the gels was measured prior to application and after removal of the systems using a HORIBA compact pH […]).

[7] = hGH stability in HEC gel at 32° C. (RP, SEC, IE HPLC); assay type: physicochemical; settings: for hGH remaining intact: HEC gel, 32° C., after 6 hours
Protocol: A sufficient quantity of His-Gly from BACHEM Bioscience was added to distilled water to make a 12.5 mM buffer solution having a pH of 6.75. A human growth hormone (hGH) formulation obtained from BresaGen contained growth hormone, mannitol and glycine in the following proportions: 1:5:1 (w/w). The original hGH formulation was subjected to purification (diafiltration against 12.5 mM His-Gly buffer to remove the mannitol and glycine) and the hGH concentration was adjusted to about 20 mg/ml via ultrafiltration.
Aliquots of 250 μl of the resulting hGH stock solution were placed into Eppendorf tubes, each containing 5 mg (2%) of hydroxyethyl cellulose (HEC) as a gelling agent and the samples were carefully mixed. After gelation, the samples were tested for stability at body temperature. The samples were warmed to 32° C. (ie, skin temperature) and assayed at 0, 1, 2, 3, 4, 5, and 6 hours to determine the percent of hGH remaining intact in the gel. hGH from the gels was extracted by dissolving the gel in 25 ml of His-Gly buffer. All hGH samples were analyzed by reverse-phase high performance liquid chromatography (RP), size-exclusion high performance liquid chromatography (SEC), and ion-exchange high performance liquid chromatography (IE) to determine percentage of intact hGH remaining (%LS in FIG. 9). The percent of hGH remaining was calculated by measuring the concentration of the hGH (as determined using one of three high performance liquid chromatography methods) and dividing that by the initial hGH concentration.
As a comparison, hGH stability studies were run under identical conditions to those described above, except histidine buffer was substituted for His-Gly.

[8] = Gly-His 10 mM, DECAD 5 mM, wearing time 5 h
[9] = Gly-His 30 mM, DECAD 5 mM, wearing time 5 h
[10] = Gly-His 100 mM, DECAD 0.5 mM, wearing time 5 h
[11] = Gly-His 100 mM, DECAD 5 mM, wearing time 5 h
[12] = Gly-His 100 mM, DECAD 5 mM, wearing time 24 h
[13] = Gly-His 250 mM, DECAD 5 mM, wearing time 5 h
[14] = His-Gly buffered hGH gel stored at 32° C.

NCC(=O)N[C@@H](Cc1cnc[nH]1)C(=O)O [Gly-His] (H-Gly-His-OH)
Conductivity at 10^−2 Molar [1]: 52 μS/cm
Final pH ([2]; Anode, drug TMAB 50 mM): 6.9
Initial pH ([2]; Anode, drug TMAB 50 mM): 7.4
Final pH ([2]; Cathode, drug SMS 50 mM): 7.9
Initial pH ([2]; Cathode, drug SMS 50 mM): 7.5
pH control with TMAB or SMS ([2]; all experimental conditions tested (Table 7)): good pH control
Solubility [3]: 1000 mM (≈ 212 mg/mL)
Final pH [4, 8]: 7.0
Initial pH [4, 8]: 6.9
Final pH [4, 9]: 7.0
Initial pH [4, 9]: 7.1
Final pH [4, 10]: 7.2
Initial pH [4, 10]: 7.3
Final pH [4, 11]: 7.3
Initial pH [4, 11]: 7.4
Final pH [4, 12]: 7.3
Initial pH [4, 12]: 7.4
Final pH [4, 13]: 7.3
Initial pH [4, 13]: 7.4
pH control with DECAD ([4]; all experimental conditions tested (Table 6)): capable of assuring pH control
pI [5]: 7.55
pka A [5]: 2.42
pI ([5]; Table 1): 7.55
pI ([5]; Table 2): 7.55
species presenting a net charge (salt form) at the pI ([5]; at pI): 30%
neutral species at the pI ([5]; at pI, net charge of zero): 70%
% salt ([5]; fraction of dipeptide carrying a net charge in aqueous solution at pH equal to pI): 22%
net charge at pH 7.5 ([5]; pH 7.5): essentially zero
pH after 24 h electrotransport ([6]; Anode): 7.2
pH after 24 h electrotransport ([6]; Cathode, listed as Gly-His 100 mM): 7.3
pH after 24 h electrotransport ([6]; Cathode, listed as Gly-His 250 mM): 7.0
Ionic strength (approx.) ([6]; Table 3, anodic buffer gel, listed as Gly-His 30 mM): ~0.007
Ionic strength (approx.) ([6]; Table 3, anodic buffer gel, listed as Gly-His 100 mM): ~0.02
Ionic strength (approx.) ([6]; Table 3, anodic buffer gel, listed as Gly-His 250 mM): ~0.06
Ionic strength (approx.) ([6]; Table 4, cathodic buffer gel, listed as Gly-His 100 mM): ~0.02
Ionic strength (approx.) ([6]; Table 4, cathodic buffer gel, listed as Gly-His 250 mM): ~0.06
Initial pH ([6]; Table 5, Anode, listed as Gly-His 100 mM): 7.3
Initial pH ([6]; Table 5, Anode, listed as Gly-His 250 mM): 7.2
Initial pH ([6]; Table 5, Cathode, listed as Gly-His 100 mM): 7.6
Initial pH ([6]; Table 5, Cathode, listed as Gly-His 250 mM): 6.9
Anodic pH after 5 h electrotransport ([6]; anodic gel, listed as Gly-His 30 mM): 7.0
Anodic pH after 5 h electrotransport ([6]; anodic gel, listed as Gly-His 100 mM): 7.3
Anodic pH after 5 h electrotransport ([6]; anodic gel, listed as Gly-His 250 mM): 7.3
Initial pH ([6]; anodic gel, prior to application, listed as Gly-His 30 mM): 7.1
Initial pH ([6]; anodic gel, prior to application, listed as Gly-His 100 mM): 7.4
Initial pH ([6]; anodic gel, prior to application, listed as Gly-His 250 mM): 7.4
Cathodic pH after 5 h electrotransport ([6]; cathodic gel, listed as Gly-His 100 mM): 7.3
Cathodic pH after 5 h electrotransport ([6]; cathodic gel, listed as Gly-His 250 mM): 7.4
Initial pH ([6]; cathodic gel, prior to application, listed as Gly-His 100 mM): 7.6
Initial pH ([6]; cathodic gel, prior to application, listed as Gly-His 250 mM): 7.5
pH control of electrotransport formulations ([6]; electrotransport experiments in animals, at their pI, for several hours): capable of assuring pH control
pH control of a cathodic electrotransport formulation ([6]; for at least 5 hours, dipeptides at their pI): capable of assuring pH control
pH control of an anodic electrotransport formulation ([6]; for several hours, dipeptides at their pI): capable of assuring pH control
pH control of anodic and cathodic electrotransport formulations ([6]; for up to 24 hours, at their pI): capable of assuring pH control

hGH: human growth hormone formulation obtained from BresaGen, diafiltered against buffer, about 20 mg/ml in 2% HEC gel
hGH remaining intact ([7]; His-Gly buffer 12.5 mM): about 80%
degradation products [7, 14]: No extra degradation products were discovered
loss of protein through degradation [7, 14]: no significant loss of protein through degradation
hGH remaining intact ([7]; histidine buffer): approximately 50%
